In patent US20100298141A1, “SUBSTITUTED PYRIDINE N-OXIDE HERBICIDES” (E. I. DU PONT DE NEMOURS AND COMPANY, priority 2007, published 2010):

What was measured:
[1] = system: downy brome; test: Test C pre-/postemergence test; format: in vivo, Bromus tectorum; conditions: for Plant response rating, Bromegrass, Downy: 31 g ai/ha, scale 0 to 100 (0 no effect, 100 complete control)
In short: (§1)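 Seeds were planted and treated preemergence with test chemical in a non-phytotoxic solvent mixture containing surfactant. Postemergence applications of the same formulation went onto plants 2 to 18 cm tall (1- to 4-leaf stage). A dash marks no test result.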

[2] = system: morningglory; test: Test C pre-/postemergence test; format: in vivo, Ipomoea coccinea; conditions: for Plant response rating, Morningglory: 31 g ai/ha, scale 0 to 100 (0 no effect, 100 complete control)
In short: as §1

[3] = system: Surinam grass; test: Test C pre-/postemergence test; format: in vivo, Brachiaria decumbens; conditions: for Plant response rating, Surinam Grass: 31 g ai/ha, scale 0 to 100 (0 no effect, 100 complete control)
In short: as §1

[4] = system: velvetleaf; test: Test A pre-/postemergence greenhouse test; format: in vivo, Abutilon theophrasti; conditions: for Plant response rating, Velvetleaf: 0 to 100 scale where 0 is no effect and 100 is complete control; for Velvetleaf plant response rating: 0 to 100 scale
In short: (§2)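 Sowing in loam/sand; same-day pre (directed soil spray) and post (foliar, 1–2 leaf, 2–10 cm) treatment with surfactant-containing non-phytotoxic solvent formulation; ~10 days in greenhouse; eye-scored injury against untreated plants.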

[5] = system: crabgrass; test: Test C pre-/postemergence test; format: in vivo, Digitaria sanguinalis; conditions: for Plant response rating, Crabgrass, Large: 31 g ai/ha, scale 0 to 100 (0 no effect, 100 complete control)
In short: as §1

[6] = system: wheat; test: Test A pre-/postemergence greenhouse test; format: in vivo, Triticum aestivum; conditions: for Plant response rating, Wheat: 0 to 100 scale where 0 is no effect and 100 is complete control; for Wheat plant response rating: 0 to 100 scale
In short: as §2

[7] = system: pigweed; test: Test C pre-/postemergence test; format: in vivo, Amaranthus retroflexus; conditions: for Plant response rating, Pigweed: 31 g ai/ha, scale 0 to 100 (0 no effect, 100 complete control)
In short: as §1

[8] = system: rice; test: Test C flooded paddy test; format: in vivo, Oryza sativa; conditions: Flood
In short: (§3)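 Under a constant 3 cm flood, test compounds went directly into the paddy water. Following 13 to 15 days of greenhouse growth, treated species and controls were compared by eye.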

[9] = system: johnsongrass; test: Test C pre-/postemergence test; format: in vivo, Sorghum halepense; conditions: for Plant response rating, Johnsongrass: 31 g ai/ha, scale 0 to 100 (0 no effect, 100 complete control)
In short: as §1

[10] = system: corn; test: Test A pre-/postemergence greenhouse test; format: in vivo, Zea mays; conditions: for Plant response rating, Corn: 0 to 100 scale where 0 is no effect and 100 is complete control; for Corn plant response rating: 0 to 100 scale
In short: as §2

[11] = system: giant foxtail; test: Test A pre-/postemergence greenhouse test; format: in vivo, Setaria faberi; conditions: for Plant response rating, Foxtail, Giant: 0 to 100 scale where 0 is no effect and 100 is complete control; for Foxtail, Giant plant response rating: 0 to 100 scale
In short: as §2

[12] = system: catchweed bedstraw; test: Test C pre-/postemergence test; format: in vivo, Galium aparine; conditions: for Plant response rating, Galium: 31 g ai/ha, scale 0 to 100 (0 no effect, 100 complete control)
In short: as §1

[13] = system: bermudagrass; test: Test C pre-/postemergence test; format: in vivo, Cynodon dactylon; conditions: for Plant response rating, Bermudagrass: 31 g ai/ha
In short: as §1

[14] = system: lambsquarters; test: Test C pre-/postemergence test; format: in vivo, Chenopodium album; conditions: for Plant response rating, Lambsquarters: 31 g ai/ha, scale 0 to 100 (0 no effect, 100 complete control)
In short: as §1

[15] = system: barnyardgrass; test: Test C flooded paddy test; format: in vivo, Echinochloa crus-galli; conditions: Flood
In short: as §3

[16] = system: soybean; test: Test C pre-/postemergence test; format: in vivo, Glycine max; conditions: for Plant response rating, Soybean: 31 g ai/ha, scale 0 to 100 (0 no effect, 100 complete control)
In short: as §1

[17] = system: giant foxtail; test: Test C pre-/postemergence test; format: in vivo, Setaria faberii; conditions: for Plant response rating, Foxtail, Giant: 31 g ai/ha, scale 0 to 100 (0 no effect, 100 complete control)
In short: as §1

[18] = preemergence, 250 g ai/ha, scale 0 (no effect) to 100 (complete control)
[19] = 62 g ai/ha, Preemergence, scale 0 to 100
[20] = 125 g ai/ha, preemergence, scale 0 (no effect) to 100 (complete control)
[21] = Postemergence, 500 g ai/ha, 0 is no effect, 100 is complete control
[22] = Preemergence, 125 g ai/ha, 0 no effect, 100 complete control
[23] = Preemergence, 500 g ai/ha, 0 no effect, 100 complete control
[24] = 62 g ai/ha, scale 0 to 100 (0 no effect, 100 complete control)
[25] = 250 g ai/ha, scale 0 to 100, 0 no effect, 100 complete control, 13 to 15 days
[26] = 62 g ai/ha, Preemergence, scale 0 to 100 (0 no effect, 100 complete control)
[27] = Preemergence, scale 0 to 100 (0 no effect, 100 complete control)

For CC(Oc1c(C[S+]([O-])c2ccc(Cl)c[n+]2[O-])c(C(F)(F)F)nn1C)C(F)(F)F (stereo not drawn) [Compound 87], the “Plant response rating, Bromegrass, Downy” value ([1]; Preemergence) was 80, the “Bromegrass, Downy plant response rating” value [1, 18] was 100 and the “Morningglory plant response rating” value [2, 19] was 80. For the same molecule, the “Morningglory plant response rating” value [2, 20] was 80, the “Plant response rating, Morningglory” value ([2]; Preemergence) was 60 and the “Morningglory plant response rating” value [2, 18] was 95. For the same molecule, the “Surinam Grass plant response rating” value [3, 19] was 95, the “Surinam Grass plant response rating” value [3, 20] was 95 and the “Plant response rating, Surinam Grass” value ([3]; Preemergence) was 80. For the same molecule, the “Surinam Grass plant response rating” value [3, 18] was 98, the “Plant response rating, Velvetleaf” value ([4]; Postemergence, 125 g ai/ha) was 70 and the “Velvetleaf plant response rating” value [4, 21] was 80. The “Velvetleaf plant response rating” value [4, 22] was 80, the “Velvetleaf plant response rating” value [4, 23] was 100 and the “Crabgrass, Large plant response rating” value [5, 19] was 95. For the same molecule, the “Crabgrass, Large plant response rating” value [5, 20] was 100, the “Plant response rating, Crabgrass, Large” value ([5]; Preemergence) was 80 and the “Crabgrass, Large plant response rating” value [5, 18] was 100. For the same molecule, the “Plant response rating, Wheat” value ([6]; Postemergence, 125 g ai/ha) was 60, the “Wheat plant response rating” value [6, 21] was 70 and the “Wheat plant response rating” value [6, 22] was 70. The “Wheat plant response rating” value [6, 23] was 100, the “Pigweed plant response rating” value [7, 19] was 75 and the “Pigweed plant response rating” value [7, 20] was 95. For the same molecule, the “Plant response rating, Pigweed” value ([7]; Preemergence) was 10, the “Pigweed plant response rating” value [7, 18] was 100 and the “Plant response rating, Rice” value [8, 24] was 30. For the same molecule, the “Plant response rating, Rice” value [8, 25] was 90, the “Johnsongrass plant response rating” value [9, 19] was 100 and the “Johnsongrass plant response rating” value [9, 20] was 100. For the same molecule, the “Plant response rating, Johnsongrass” value ([9]; Preemergence) was 90, the “Johnsongrass plant response rating” value [9, 18] was 100 and the “Plant response rating, Corn” value ([10]; Postemergence, 125 g ai/ha) was 60. For the same molecule, the “Corn plant response rating” value [10, 21] was 70, the “Corn plant response rating” value [10, 22] was 40 and the “Plant response rating, Corn” value ([10]; Preemergence, 500 g ai/ha) was 90. The “Plant response rating, Foxtail, Giant” value ([11]; Postemergence, 125 g ai/ha) was 90, the “Foxtail, Giant plant response rating” value [11, 21] was 90 and the “Foxtail, Giant plant response rating” value [11, 22] was 90. For the same molecule, the “Plant response rating, Foxtail, Giant” value ([11]; Preemergence, 500 g ai/ha) was 100, the “Galium plant response rating” value [12, 19] was 80 and the “Galium plant response rating” value [12, 20] was 100. The “Plant response rating, Galium” value ([12]; Preemergence) was 70, the “Galium plant response rating” value [12, 18] was 100 and the “Bermudagrass plant response rating” value [13, 26] was 100. For the same molecule, the “Bermudagrass plant response rating” value [13, 20] was 100, the “Plant response rating, Bermudagrass” value [13, 27] was 100 and the “Bermudagrass plant response rating” value [13, 18] was 100. For the same molecule, the “Lambsquarters plant response rating” value [14, 19] was 85, the “Lambsquarters plant response rating” value [14, 20] was 100 and the “Plant response rating, Lambsquarters” value ([14]; Preemergence) was 60. The “Lambsquarters plant response rating” value [14, 18] was 100, the “Plant response rating, Barnyardgrass” value [15, 24] was 30 and the “Plant response rating, Barnyardgrass” value [15, 25] was 90. The “Soybean plant response rating” value [16, 19] was 65, the “Soybean plant response rating” value [16, 20] was 80 and the “Plant response rating, Soybean” value ([16]; Preemergence) was 65. The “Soybean plant response rating” value [16, 18] was 80, the “Foxtail, Giant plant response rating” value [17, 19] was 95 and the “Foxtail, Giant plant response rating” value [17, 20] was 100. The “Plant response rating, Foxtail, Giant” value ([17]; Preemergence) was 85 and the “Foxtail, Giant plant response rating” value [17, 18] was 100.
CCc1cc[n+]([O-])c([S+]([O-])Cc2c(C(F)(F)F)nn(C)c2OC(F)F)c1 (stereo not drawn) [Compound 101] was tested, and the “Bromegrass, Downy plant response rating” value [1, 19] was 45, the “Bromegrass, Downy plant response rating” value [1, 20] was 90 and the “Plant response rating, Bromegrass, Downy” value ([1]; Preemergence) was 40. For the same molecule, the “Bromegrass, Downy plant response rating” value [1, 18] was 100, the “Morningglory plant response rating” value [2, 19] was 60 and the “Morningglory plant response rating” value [2, 20] was 100. The “Plant response rating, Morningglory” value ([2]; Preemergence) was 20, the “Morningglory plant response rating” value [2, 18] was 100 and the “Surinam Grass plant response rating” value [3, 19] was 80. The “Surinam Grass plant response rating” value [3, 20] was 95, the “Plant response rating, Surinam Grass” value ([3]; Preemergence) was 60 and the “Surinam Grass plant response rating” value [3, 18] was 98. The “Plant response rating, Velvetleaf” value ([4]; Postemergence, 125 g ai/ha) was 70, the “Velvetleaf plant response rating” value [4, 21] was 90 and the “Velvetleaf plant response rating” value [4, 22] was 80. The “Velvetleaf plant response rating” value [4, 23] was 100, the “Crabgrass, Large plant response rating” value [5, 19] was 85 and the “Crabgrass, Large plant response rating” value [5, 20] was 95. For the same molecule, the “Plant response rating, Crabgrass, Large” value ([5]; Preemergence) was 50, the “Crabgrass, Large plant response rating” value [5, 18] was 98 and the “Plant response rating, Wheat” value ([6]; Postemergence, 125 g ai/ha) was 50. The “Wheat plant response rating” value [6, 21] was 60, the “Wheat plant response rating” value [6, 22] was 70 and the “Wheat plant response rating” value [6, 23] was 100. The “Pigweed plant response rating” value [7, 19] was 50, the “Pigweed plant response rating” value [7, 20] was 95 and the “Plant response rating, Pigweed” value ([7]; Preemergence) was 50. For the same molecule, the “Pigweed plant response rating” value [7, 18] was 98, the “Plant response rating, Rice” value [8, 24] was 0 and the “Plant response rating, Rice” value [8, 25] was 75. The “Johnsongrass plant response rating” value [9, 19] was 85, the “Johnsongrass plant response rating” value [9, 20] was 95 and the “Plant response rating, Johnsongrass” value ([9]; Preemergence) was 70. For the same molecule, the “Johnsongrass plant response rating” value [9, 18] was 100, the “Plant response rating, Corn” value ([10]; Postemergence, 125 g ai/ha) was 60 and the “Corn plant response rating” value [10, 21] was 70. The “Corn plant response rating” value [10, 22] was 50, the “Corn plant response rating” value [10, 23] was 90 and the “Plant response rating, Foxtail, Giant” value ([11]; Postemergence, 125 g ai/ha) was 80. The “Foxtail, Giant plant response rating” value [11, 21] was 90, the “Foxtail, Giant plant response rating” value [11, 22] was 100 and the “Foxtail, Giant plant response rating” value [11, 23] was 100. The “Galium plant response rating” value [12, 19] was 50, the “Galium plant response rating” value [12, 20] was 98 and the “Plant response rating, Galium” value ([12]; Preemergence) was 0. The “Galium plant response rating” value [12, 18] was 100, the “Bermudagrass plant response rating” value [13, 26] was 85 and the “Bermudagrass plant response rating” value [13, 20] was 100. The “Plant response rating, Bermudagrass” value [13, 27] was 55, the “Bermudagrass plant response rating” value [13, 18] was 100 and the “Lambsquarters plant response rating” value [14, 19] was 100. For the same molecule, the “Lambsquarters plant response rating” value [14, 20] was 100, the “Plant response rating, Lambsquarters” value ([14]; Preemergence) was 80 and the “Lambsquarters plant response rating” value [14, 18] was 100. For the same molecule, the “Plant response rating, Barnyardgrass” value [15, 24] was 0, the “Plant response rating, Barnyardgrass” value [15, 25] was 70 and the “Soybean plant response rating” value [16, 19] was 60. For the same molecule, the “Soybean plant response rating” value [16, 20] was 75, the “Plant response rating, Soybean” value ([16]; Preemergence) was 0 and the “Soybean plant response rating” value [16, 18] was 85. For the same molecule, the “Foxtail, Giant plant response rating” value [17, 19] was 80, the “Foxtail, Giant plant response rating” value [17, 20] was 95 and the “Plant response rating, Foxtail, Giant” value ([17]; Preemergence) was 70. For the same molecule, the “Foxtail, Giant plant response rating” value [17, 18] was 98.
